Like-named read-outs stand apart in the source and are kept apart here.
Key:
Assay in all cases: 3xERE luciferase reporter activation, HEK293
ST ERα = target: T1, ST ERα (Panthera tigris, UniProt Z9XQL7S1Y6); type: cell-based
T1 construct: full-length ESR1 ORF (1788 bp, about 595 aa), codon-optimised, pcDNA3.1+, HEK293; residues S53, P76, T496, S585
T1 sequence (Z9XQL7S1Y6 1-595): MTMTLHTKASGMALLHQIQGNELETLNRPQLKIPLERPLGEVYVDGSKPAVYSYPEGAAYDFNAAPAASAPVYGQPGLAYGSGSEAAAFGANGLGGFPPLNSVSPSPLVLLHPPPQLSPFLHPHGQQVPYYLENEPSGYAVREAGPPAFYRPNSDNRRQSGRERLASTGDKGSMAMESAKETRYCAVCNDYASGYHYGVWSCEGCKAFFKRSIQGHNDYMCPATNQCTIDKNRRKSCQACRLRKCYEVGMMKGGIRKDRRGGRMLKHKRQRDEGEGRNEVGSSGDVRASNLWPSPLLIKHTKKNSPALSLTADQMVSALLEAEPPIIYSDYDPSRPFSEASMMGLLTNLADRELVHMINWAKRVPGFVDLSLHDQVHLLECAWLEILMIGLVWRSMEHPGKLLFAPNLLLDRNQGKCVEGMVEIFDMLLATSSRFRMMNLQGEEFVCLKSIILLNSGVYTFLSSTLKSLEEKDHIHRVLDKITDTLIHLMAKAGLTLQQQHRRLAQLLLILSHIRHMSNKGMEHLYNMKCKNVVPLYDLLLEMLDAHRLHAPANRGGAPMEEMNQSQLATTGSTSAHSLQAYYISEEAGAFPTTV

SL ERβ = target: T2, SL ERβ (Panthera uncia, UniProt Z9GFH5XYU7); type: cell-based; details: agonist; 24 h, 37 °C; normalised to β-gal and maximal E2 activation; read-out: SL ER⍺ / EC50
T2 construct: full-length ESR2 ORF (1653 bp, about 550 aa), not codon-optimised, pcDNA3.1+, HEK293; residues S31, S40, I138, A147, G361, R433, Q550

ST ERβ = tested on: T3, ST ERβ; type: cell-based, Panthera tigris sumatrae; details: agonist, 24 h, 37 °C
T3 construct: gene ESR2; full-length ESR2 ORF (1653 bp, about 550 aa), codon-optimised, pcDNA3.1+, HEK293; residues S31, S40, V138, A147, E361, R433, E550

SL ERα = tested on: T4, SL ERα; type: cell-based, Panthera uncia; details: agonist, 24 h, 37 °C, corrected for constitutive activity
T4 construct: gene ESR1; full-length ESR1 ORF (1788 bp, about 595 aa), codon-optimised, pcDNA3.1+, HEK293; residues S53, S76, T496, T585

[1] = normalised to β-gal and maximal E2 activation, read-out: ST ER⍺ / EC50
[2] = normalised to β-gal and maximal E2 activation, read-out: SL ER⍺ / EC50
[3] = normalised to β-gal, read-out: EC50

| EC50 (ST ERα; read-out: ST ER⍺ / EC50) [nM] | EC50 (SL ERβ) [nM] | EC50 (ST ERα; read-out: EC50) [nM] | SMILES | EC50 (ST ERβ; [1]) [nM] | EC50 (SL ERα; [2]) [nM] | EC50 (ST ERβ; [3]) [nM] | EC50 (SL ERα; [3]) [nM] |
| --- | --- | --- | --- | --- | --- | --- | --- |
| 131 | 26 |  | O=c1oc2cc(O)ccc2c2oc3cc(O)ccc3c12 [COUM, coumestrol] | 8.17 | 41.3 |  |  |
|  |  |  | O=c1c(-c2ccc(O)cc2)coc2cc(O)ccc12 [DAID, daidzein] | 793 |  |  |  |
|  |  | 0.00611 | C[C@]12CC[C@@H]3c4ccc(O)cc4CC[C@H]3[C@@H]1CC[C@@H]2O [E2, 17β-estradiol] |  |  | 0.041 | 0.00969 |
| 1890 | 291 |  | O=c1c(-c2ccc(O)cc2)coc2cc(O)cc(O)c12 [GEN, genistein] | 22.3 | 1670 |  |  |
